Source: US12516056B2, “Compounds for inhibition of janus kinase 1” (MANKIND PHARMA LTD., priority 2019, dated 2026)

Key:
Recombinant JAK1 = target: T1, Recombinant JAK1 (Homo sapiens, UniProt P23458); assay: JAK biochemical assay (LANCE Ultra TR-FRET), JAK1; conditions: recombinant JAK1, TR-FRET; read-out: Biochemical Assay (μM) JAK1
T1 construct: purchased Carna Biosciences
In short: (§1)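 Kinase reactions ran in buffer of 50 mM HEPES pH 7.5 with 1 mM EGTA, 10 mM MgCl2, 2 mM DTT and 0.01% Tween-20, using recombinant enzyme. Phosphorylated ULight substrate was detected by TR-FRET, and compound effect expressed as % inhibition against vehicle.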

[1] = tested on: STAT5 phosphorylation by GMCSF in TF-1 cells; assay: JAK cellular assay: STAT5 phosphorylation by GMCSF in TF-1 cells (HTRF); type: cell-based; conditions: Homo sapiens; TF-1 cells, GMCSF 5 ng/ml, pSTAT5 HTRF; read-out: Cell Based Assay (μM) TF-1/GMCSF/pSTAT5
Procedure: TF-1 cells were starved overnight in OptiMEM medium with 0.5% charcoal stripped fetal bovine serum, 0.1 mM nonessential amino acids (NEAA), 1 mM sodium pyruvate and without phenol red in CO2 incubator maintained at 37° c. Next day, cells were resuspended in RPMI without phenol red and dispensed into a 96 well plate at a final cell density of 1,20,000 cells per well. Compounds were diluted in DMSO and added to cells and incubated for 30 minutes in CO2 incubator maintained at 37° c. Final DMSO concentration in cell based assay was 0.2%. Human recombinant cytokines, IL-6 (30 ng/ml) and GMCSF (5 ng/ml) were added to the plate containing cells along with compound and incubated for 20 minutes with gentle tapping at every 5 minutes once. Compound mediated effects on STAT3 and STAT5 phosphorylation was measured in the lysates prepared by using CISBIO pSTAT3 and pSTAT5 detection kits by HTRF method. Background signal obtained from cells which were not activated with cytokines, was subtracted from vehicle controls and compound treated wells.

[2] = tested on: STAT3 phosphorylation by IL-6 in TF-1 cells; assay: JAK cellular assay: STAT3 phosphorylation by IL-6 in TF-1 cells (HTRF); type: cell-based; conditions: Homo sapiens, TF-1, TF-1 cells, IL-6 30 ng/ml, pSTAT3 HTRF; read-out: Cell Based Assay (μM) TF-1/IL-6/pSTAT3
In short: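 Phospho-STAT3 (IL-6, 30 ng/ml) and phospho-STAT5 (GMCSF, 5 ng/ml) read by HTRF in lysates after 20 min cytokine exposure, minus unstimulated-cell background. Cells were serum-starved overnight, plated at 120,000/well, given compound 30 min at 37 °C beforehand; DMSO 0.2% final.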

Recombinant TYK2 = target: T2, Recombinant TYK2 (Homo sapiens, UniProt P29597); assay: JAK biochemical assay (LANCE Ultra TR-FRET), TYK2; conditions: recombinant TYK2, TR-FRET; read-out: Biochemical Assay (μM) TYK2
T2 construct: purchased Carna Biosciences
T2 sequence (P29597 whole entry): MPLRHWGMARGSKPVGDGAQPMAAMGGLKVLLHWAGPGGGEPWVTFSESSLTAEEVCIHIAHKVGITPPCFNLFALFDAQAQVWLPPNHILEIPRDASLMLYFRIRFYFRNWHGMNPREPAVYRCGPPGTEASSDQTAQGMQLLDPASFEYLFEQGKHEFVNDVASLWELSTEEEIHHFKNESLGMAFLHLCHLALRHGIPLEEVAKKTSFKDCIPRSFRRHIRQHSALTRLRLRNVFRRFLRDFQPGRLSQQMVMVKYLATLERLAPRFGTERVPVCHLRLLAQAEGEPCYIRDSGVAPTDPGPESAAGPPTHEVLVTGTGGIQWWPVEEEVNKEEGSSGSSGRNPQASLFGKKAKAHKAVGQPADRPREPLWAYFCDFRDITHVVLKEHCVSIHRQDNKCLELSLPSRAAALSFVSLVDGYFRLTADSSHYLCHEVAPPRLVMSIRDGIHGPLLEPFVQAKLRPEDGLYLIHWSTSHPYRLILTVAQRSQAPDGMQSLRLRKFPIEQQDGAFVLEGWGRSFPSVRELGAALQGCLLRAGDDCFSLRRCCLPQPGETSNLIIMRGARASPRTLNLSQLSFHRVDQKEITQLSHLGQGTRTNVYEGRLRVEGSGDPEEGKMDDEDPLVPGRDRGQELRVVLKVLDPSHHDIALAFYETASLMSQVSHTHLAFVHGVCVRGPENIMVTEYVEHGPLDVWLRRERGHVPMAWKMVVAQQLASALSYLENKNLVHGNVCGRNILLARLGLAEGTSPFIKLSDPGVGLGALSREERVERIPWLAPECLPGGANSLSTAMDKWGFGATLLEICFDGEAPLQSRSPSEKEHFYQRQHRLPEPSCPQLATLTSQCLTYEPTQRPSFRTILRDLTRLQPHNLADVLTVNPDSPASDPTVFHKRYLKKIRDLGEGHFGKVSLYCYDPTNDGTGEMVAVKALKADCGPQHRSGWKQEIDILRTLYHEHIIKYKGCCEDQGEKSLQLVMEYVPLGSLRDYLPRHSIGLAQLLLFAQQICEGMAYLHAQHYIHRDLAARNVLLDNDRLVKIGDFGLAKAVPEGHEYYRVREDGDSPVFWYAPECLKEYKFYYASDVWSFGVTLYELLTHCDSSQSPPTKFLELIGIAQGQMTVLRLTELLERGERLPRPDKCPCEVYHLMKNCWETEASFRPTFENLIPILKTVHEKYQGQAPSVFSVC
In short: as §1

Recombinant JAK2 = target: T3, Recombinant JAK2 (Homo sapiens, UniProt O60674); assay: JAK biochemical assay (LANCE Ultra TR-FRET), JAK2; conditions: recombinant JAK2, TR-FRET; read-out: Biochemical Assay (μM) JAK2
T3 construct: purchased Carna Biosciences
T3 sequence (O60674 whole entry): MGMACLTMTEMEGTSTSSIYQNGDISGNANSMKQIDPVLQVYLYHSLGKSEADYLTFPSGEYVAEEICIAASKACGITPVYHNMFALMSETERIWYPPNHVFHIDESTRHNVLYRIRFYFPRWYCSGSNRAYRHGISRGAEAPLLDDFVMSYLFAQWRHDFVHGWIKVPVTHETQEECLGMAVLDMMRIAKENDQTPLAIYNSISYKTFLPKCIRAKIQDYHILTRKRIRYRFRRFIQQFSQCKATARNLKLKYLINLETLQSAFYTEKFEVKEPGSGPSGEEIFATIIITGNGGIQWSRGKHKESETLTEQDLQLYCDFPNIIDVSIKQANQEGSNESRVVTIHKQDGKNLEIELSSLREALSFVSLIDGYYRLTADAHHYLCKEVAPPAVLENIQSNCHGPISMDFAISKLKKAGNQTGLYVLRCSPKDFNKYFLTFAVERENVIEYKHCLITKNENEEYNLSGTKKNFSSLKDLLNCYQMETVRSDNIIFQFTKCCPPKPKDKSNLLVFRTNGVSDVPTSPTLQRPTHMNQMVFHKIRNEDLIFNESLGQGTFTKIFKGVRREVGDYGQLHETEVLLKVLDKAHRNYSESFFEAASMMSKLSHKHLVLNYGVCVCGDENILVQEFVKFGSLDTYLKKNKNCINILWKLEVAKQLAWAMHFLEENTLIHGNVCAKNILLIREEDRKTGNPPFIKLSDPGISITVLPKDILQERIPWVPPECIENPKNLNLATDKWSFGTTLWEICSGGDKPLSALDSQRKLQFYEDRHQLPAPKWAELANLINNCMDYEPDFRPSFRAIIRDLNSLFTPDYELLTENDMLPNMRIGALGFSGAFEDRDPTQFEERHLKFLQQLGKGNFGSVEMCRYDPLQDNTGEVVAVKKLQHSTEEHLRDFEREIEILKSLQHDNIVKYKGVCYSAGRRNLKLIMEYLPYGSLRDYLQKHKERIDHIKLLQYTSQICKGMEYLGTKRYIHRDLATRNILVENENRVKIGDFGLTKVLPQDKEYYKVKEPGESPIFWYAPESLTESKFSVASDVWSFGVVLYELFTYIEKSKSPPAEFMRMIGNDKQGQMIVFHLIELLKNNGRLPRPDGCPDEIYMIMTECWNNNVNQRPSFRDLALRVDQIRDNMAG
In short: as §1

Recombinant JAK3 = target: T4, Recombinant JAK3 (Homo sapiens, UniProt P52333); assay: JAK biochemical assay (LANCE Ultra TR-FRET), JAK3; conditions: recombinant JAK3, TR-FRET; read-out: Biochemical Assay (μM) JAK3
T4 construct: purchased Carna Biosciences
T4 sequence (P52333 1-1124): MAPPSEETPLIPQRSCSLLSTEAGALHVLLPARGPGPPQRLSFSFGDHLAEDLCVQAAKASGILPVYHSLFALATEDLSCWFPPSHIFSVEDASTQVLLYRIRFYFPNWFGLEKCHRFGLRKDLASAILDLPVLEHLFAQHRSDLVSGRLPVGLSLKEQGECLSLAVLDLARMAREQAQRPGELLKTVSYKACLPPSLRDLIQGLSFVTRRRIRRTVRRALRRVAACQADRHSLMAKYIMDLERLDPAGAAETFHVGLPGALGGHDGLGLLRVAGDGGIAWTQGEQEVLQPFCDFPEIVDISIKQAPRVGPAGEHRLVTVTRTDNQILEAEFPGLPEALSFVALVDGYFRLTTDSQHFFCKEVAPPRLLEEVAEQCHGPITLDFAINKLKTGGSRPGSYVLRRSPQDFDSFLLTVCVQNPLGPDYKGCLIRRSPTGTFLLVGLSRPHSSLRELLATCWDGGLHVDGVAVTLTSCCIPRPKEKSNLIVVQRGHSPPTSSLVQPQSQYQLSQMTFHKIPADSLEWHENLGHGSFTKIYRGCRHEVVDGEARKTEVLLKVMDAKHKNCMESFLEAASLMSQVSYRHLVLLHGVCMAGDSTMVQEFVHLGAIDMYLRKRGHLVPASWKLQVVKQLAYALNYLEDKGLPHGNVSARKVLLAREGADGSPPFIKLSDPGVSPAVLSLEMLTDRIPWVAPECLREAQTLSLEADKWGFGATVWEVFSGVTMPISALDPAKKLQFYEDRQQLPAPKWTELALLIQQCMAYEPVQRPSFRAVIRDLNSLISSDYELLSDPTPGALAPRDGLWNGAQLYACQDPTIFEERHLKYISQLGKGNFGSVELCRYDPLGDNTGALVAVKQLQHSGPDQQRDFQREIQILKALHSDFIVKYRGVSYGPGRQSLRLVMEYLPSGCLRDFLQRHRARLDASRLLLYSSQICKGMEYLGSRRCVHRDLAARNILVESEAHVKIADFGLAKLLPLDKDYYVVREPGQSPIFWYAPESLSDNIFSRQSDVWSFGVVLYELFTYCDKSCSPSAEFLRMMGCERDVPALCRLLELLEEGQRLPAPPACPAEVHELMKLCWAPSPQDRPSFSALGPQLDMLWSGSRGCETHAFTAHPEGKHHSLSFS
In short: as §1

T1 sequence (P23458 whole entry): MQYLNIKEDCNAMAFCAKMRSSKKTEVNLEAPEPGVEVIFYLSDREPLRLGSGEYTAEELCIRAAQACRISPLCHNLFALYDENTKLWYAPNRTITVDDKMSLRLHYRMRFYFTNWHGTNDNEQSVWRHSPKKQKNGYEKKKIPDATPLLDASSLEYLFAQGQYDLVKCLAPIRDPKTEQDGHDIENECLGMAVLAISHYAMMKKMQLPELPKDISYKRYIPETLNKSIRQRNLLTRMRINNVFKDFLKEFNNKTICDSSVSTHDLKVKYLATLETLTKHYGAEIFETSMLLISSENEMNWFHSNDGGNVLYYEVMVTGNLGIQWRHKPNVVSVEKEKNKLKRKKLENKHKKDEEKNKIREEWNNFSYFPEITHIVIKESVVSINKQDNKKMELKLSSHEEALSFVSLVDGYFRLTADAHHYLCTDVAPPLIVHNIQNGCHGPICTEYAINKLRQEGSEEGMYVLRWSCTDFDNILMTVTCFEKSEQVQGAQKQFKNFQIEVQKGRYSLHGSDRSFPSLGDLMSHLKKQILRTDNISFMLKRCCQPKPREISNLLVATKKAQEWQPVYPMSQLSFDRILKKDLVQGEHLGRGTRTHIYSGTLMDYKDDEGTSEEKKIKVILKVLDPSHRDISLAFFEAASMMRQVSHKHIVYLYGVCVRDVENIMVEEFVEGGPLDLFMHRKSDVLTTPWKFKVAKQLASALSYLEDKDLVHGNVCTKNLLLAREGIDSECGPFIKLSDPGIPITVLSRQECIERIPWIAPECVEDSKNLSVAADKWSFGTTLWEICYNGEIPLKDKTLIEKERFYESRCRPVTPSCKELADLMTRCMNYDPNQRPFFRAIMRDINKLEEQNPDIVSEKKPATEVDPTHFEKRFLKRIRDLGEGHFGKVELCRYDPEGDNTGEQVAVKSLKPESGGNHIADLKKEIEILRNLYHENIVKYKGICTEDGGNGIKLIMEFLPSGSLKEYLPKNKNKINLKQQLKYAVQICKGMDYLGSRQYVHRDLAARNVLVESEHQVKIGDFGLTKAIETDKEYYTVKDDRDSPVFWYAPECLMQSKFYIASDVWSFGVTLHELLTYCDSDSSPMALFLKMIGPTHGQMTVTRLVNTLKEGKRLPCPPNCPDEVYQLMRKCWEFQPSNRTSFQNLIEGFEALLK

Row | SMILES | IC50 (Recombinant JAK1) [µM] | IC50 [1] [µM] | IC50 [2] [µM] | IC50 (Recombinant TYK2) [µM] | IC50 (Recombinant JAK2) [µM] | IC50 (Recombinant JAK3) [µM]
1 | N#CCC(NC(=O)n1cc(-c2ccnc3[nH]c(=O)[nH]c23)cn1)C(F)(F)F (stereo not drawn) [Example 1050, N-(3-cyano-1,1,1-trifluoropropan-2-yl)-4-(2,3-dihydro-2-oxo-1H-imidazo[4,5-b]pyridin-7-yl)-1H-pyrazole-1-carboxamide] | < 0.5 | > 10 | < 10 | < 0.5 | < 0.5 | < 0.5
2 | CN(CCC(c1ccc(-n2cc(-c3ccnc4[nH]cnc34)cn2)nc1)C(F)(F)F)C1CC1 (stereo not drawn) [Example 1195, N-(3-(6-(4-(3H-imidazo[4,5-b]pyridin-7-yl)-1H-pyrazol-1-yl)pyridin-3-yl)-4,4,4-trifluorobutyl)-N-methylcyclopropanamine] | < 0.1 | > 1 | > 0.5 | > 1 | < 0.1 | < 0.1
3 | N#CCc1ccc(-n2cc(-c3ccnc4[nH]cnc34)cn2)c(F)c1 [Example 1103, 2-(4-(4-(3H-imidazo[4,5-b]pyridin-7-yl)-1H-pyrazol-1-yl)-3-fluorophenyl)acetonitrile] | > 0.5 | > 10 | > 1 | > 10 | > 0.5 | > 10
4 | N#CC1CCN(C(=O)n2cc(-c3ccnc4[nH]cnc34)cn2)C1 (stereo not drawn) [Example 1177, 1-(4-(3H-imidazo[4,5-b]pyridin-7-yl)-1H-pyrazole-1-carbonyl)pyrrolidine-3-carbonitrile] | > 1 | > 10 | > 10 | > 0.5 | < 0.5 | > 1
5 | OCC(Cc1ccc(-n2cc(-c3ccnc4[nH]cnc34)cn2)nc1)C(F)(F)F (stereo not drawn) [Example 1191, 3-(6-(4-(3H-imidazo[4,5-b]pyridin-7-yl)-1H-pyrazol-1-yl)pyridin-3-yl)-2-(trifluoromethyl)propan-1-ol] | < 0.1 | > 1 | > 1 | > 1 | < 0.1 | < 0.1
6 | CCN1CC(C(O)(c2ccc(-n3cc(-c4ccnc5[nH]cnc45)cn3)nc2)C(F)(F)F)C1 (stereo not drawn) [Example 1239, 1-(6-(4-(3H-imidazo[4,5-b]pyridin-7-yl)-1H-pyrazol-1-yl)pyridin-3-yl)-1-(1-ethylazetidin-3-yl)-2,2,2-trifluoroethanol] | 0.006 | 0.26 | 0.05 | 0.06 | 0.056 | 0.023
7 | CS(=O)(=O)NC(c1ccc(-n2cc(-c3ccnc4[nH]cnc34)cn2)nc1)C(F)(F)F (stereo not drawn) [Example 1187] | < 0.1 | > 1 | > 1 | > 1 | > 0.1 | < 0.1
8 | N#CC1CCN(C(=O)n2cc(-c3ccnc4[nH]cnc34)cn2)CC1 [Example 1067, 1-(4-(3H-imidazo[4,5-b]pyridin-7-yl)-1H-pyrazole-1-carbonyl)piperidine-4-carbonitrile] | > 1 | > 10 | > 10 | > 10 | > 0.5 | > 0.5
9 | N#CC1CN(C(=O)n2cc(-c3ccnc4[nH]c(=O)[nH]c34)cn2)C1 [Example 1048, 1-(4-(2-oxo-2,3-dihydro-1H-imidazo[4,5-b]pyridin-7-yl)-1H-pyrazole-1-carbonyl)azetidine-3-carbonitrile] | < 0.5 | > 10 | > 10 | < 0.5 | < 0.5 | < 0.5
10 | O=S1(=O)CCN(Cc2ccc(-n3cc(-c4ccnc5[nH]cnc45)cn3)nc2)CC1 [Example 1086, 4-((6-(4-(3H-imidazo[4,5-b]pyridin-7-yl)-1H-pyrazol-1-yl)pyridin-3-yl)methyl)thiomorpholine 1,1-dioxide] | < 0.5 | > 10 | > 10 | > 10 | > 0.5 | > 0.5
11 | N#CC(c1ccc(-n2cc(-c3ccnc4[nH]cnc34)cn2)cc1)C1CC1 (stereo not drawn) [Example 1100, 2-(4-(4-(3H-imidazo[4,5-b]pyridin-7-yl)-1H-pyrazol-1-yl)phenyl)-2-cyclopropylacetonitrile] | > 0.5 | > 10 | > 10 | > 10 | > 0.5 | > 0.5
12 | CC(C)[C@@H](C#N)NC(=O)n1cc(-c2ccnc3[nH]cnc23)cn1 [Example 1073, N-((S)-1-cyano-2-methylpropyl)-4-(3H-imidazo[4,5-b]pyridin-7-yl)-1H-pyrazole-1-carboxamide] | > 1 | > 10 | > 1 | > 0.5 | > 0.5 | > 0.5
13 | CC(C)[C@H](C#N)NC(=O)n1cc(-c2ccnc3[nH]c(=O)[nH]c23)cn1 [Example 1049, N-((R)-1-cyano-2-methylpropyl)-4-(2,3-dihydro-2-oxo-1H-imidazo[4,5-b]pyridin-7-yl)-1H-pyrazole-1-carboxamide] | < 0.5 | > 10 | < 10 | < 0.5 | < 0.5 | < 0.5
14 | N#CC(NC(=O)n1cc(-c2ccnc3[nH]cnc23)cn1)c1ccccc1 (stereo not drawn) [Example 1070, N-(cyano(phenyl)methyl)-4-(3H-imidazo[4,5-b]pyridin-7-yl)-1H-pyrazole-1-carboxamide] | > 0.5 | > 10 | > 10 | > 0.5 | < 0.5 | > 0.5
15 | N#CC1CN(CCC(c2ccc(-n3cc(-c4ccnc5[nH]cnc45)cn3)nc2)C(F)(F)F)C1 (stereo not drawn) [Example 1202, 1-(3-(6-(4-(3H-imidazo[4,5-b]pyridin-7-yl)-1H-pyrazol-1-yl)pyridin-3-yl)-4,4,4-trifluorobutyl)azetidine-3-carbonitrile] | < 0.1 | > 1 | > 0.5 | > 0.5 | > 0.1 | < 0.1
16 | CC(C)NC(=O)CCC(c1ccc(-n2cc(-c3ccnc4[nH]cnc34)cn2)nc1)C(F)(F)F (stereo not drawn) [Example 1210, 4-(6-(4-(3H-imidazo[4,5-b]pyridin-7-yl)-1H-pyrazol-1-yl)pyridin-3-yl)-5,5,5-trifluoro-N-isopropylpentanamide] | < 0.1 | > 1 | > 0.75 | > 1 | < 0.1 | < 0.1
